Patent US5599904A, “Chimeric steroid hormone superfamily receptor proteins” (priority 1992, dated 1997)

Columns and labels:
[1] = molecular target: T1, chimeric receptor hRGR (human retinoic acid receptor with hGR DNA-binding domain) (Homo sapiens, UniProt P10276, INS60IETQSSSSEEIVPSPPSPPPLPRPPKLCLVCSDEASGCHYGVLTCGSCKVFFKRAVEGQHNYLCAGRNDCIIDKIRRKNCPACRYRKCLQAGMNLES); assay: Functional ligand identification assay: CAT induction in CV-1 cells cotransfected with pRShRGR and MTV-CAT; format: cell-based; conditions: for Induction of CAT activity of the hybrid receptor by natural and synthetic non-retinoid ligands: pRShRGR + pMTVCAT, single 1 μM dose (FIG. 3A legend); for Induction of CAT activity of the hybrid receptor (in words): pRShRGR + MTV-CAT, FIG. 2B at 100 nM, FIG. 3A increasing concentrations
T1 construct: expressed in transfected cells; host or cells: CV-1 (African Green monkey kidney) cells, cotransfected with pRShRGR and pMTVCAT
T1 sequence (P10276 with tags, fused parts or gaps isoform P10276-3 INS60IETQSSSSEEIVPSPPSPPPLPRPPKLCLVCSDEASGCHYGVLTCGSCKVFFKRAVEGQHNYLCAGRNDCIIDKIRRKNCPACRYRKCLQAGMNLES): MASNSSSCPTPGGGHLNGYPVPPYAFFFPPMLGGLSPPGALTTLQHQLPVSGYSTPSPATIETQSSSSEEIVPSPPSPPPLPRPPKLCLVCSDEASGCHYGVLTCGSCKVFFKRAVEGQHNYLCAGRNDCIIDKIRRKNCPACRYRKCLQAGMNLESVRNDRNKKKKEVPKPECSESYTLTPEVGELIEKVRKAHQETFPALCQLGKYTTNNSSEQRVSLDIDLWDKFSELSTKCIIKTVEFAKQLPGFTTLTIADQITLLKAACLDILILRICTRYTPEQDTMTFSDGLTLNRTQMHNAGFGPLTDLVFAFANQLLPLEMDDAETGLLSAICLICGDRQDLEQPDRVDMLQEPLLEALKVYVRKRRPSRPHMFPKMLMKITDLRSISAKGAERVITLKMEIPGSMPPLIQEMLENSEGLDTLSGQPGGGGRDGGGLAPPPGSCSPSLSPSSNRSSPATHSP
Source text: Since the ligand for the gene product of phRAR1 was unknown, it was desirable to develop a quick and sensitive assay to reveal its identity. […] This chimera recognizes the glucocorticoid responsive element of the MMTV-LTR but stimulates transcription in an estrogen-dependent fashion (see Green, et al., (1987)). This led us to wonder if a general domain-swapping strategy could be exploited to identify the ligand-binding properties of a novel hormone receptor. To test this approach we first substituted the DNA-binding domain of the phRAR1 gene product with the well described DNA-binding domain from the hGR (FIG. 2A). (This chimeric construction, when expressed in suitable host cells, produces a hybrid receptor protein whose ligand-binding domain region must bind with a functional exogenous ligand before the ligand/receptor complex can bind to a GRE, thereby activating a glucocorticoid inducible promoter.)
To assay for the presence of a functional ligand the chimeric receptor gene was transfected into suitable host cells along with a suitable GRE linked reporter gene. CV-1 cells were used for the assay along with a MMTV-CAT reporter gene. (MMTV-CAT is carried on reporter plasmid, GM-CAT, which has been deposited with the American Type Culture Collection for patent purposes; see the section of this specification labeled, "Deposits"). […] For example, the growth hormone promoter can be functionally linked to the bacterial CAT gene. Since the growth hormone promoter contains a thyroid responsive transcription element, such a reporter plasmid can be used to assay hybrid thyroid receptor proteins. See the subheading: "Construction of Reporter and Expression Plasmids" in this specification. (Since mineralocorticoid receptors can activate GRE's, a reporter plasmid such as GM-CAT can be used to assay hybrid mineralocorticoid receptor proteins.)
Returning to the functional ligand identification assay, the transfected cells were then systematically challenged with a battery of candidate ligands and induction monitored by changes in CAT activity.
(§1) FIGS. 2A and 2B. 2A, Construction of the chimeric receptor hRGR. The domain-structure of the various constructions are shown schematically, the numbers correspond to the amino acid positions of each domain. The DNA-binding domains are represented by "DNA" and the ligand-binding domains by their respective inducers. The Nor1 and Xho1 sites created by site-directed mutagenesis to permit the exchange of the DNA-binding domains between receptors are indicated.
(§2) Methods. […] The mutant receptors were then transferred to the expression vector pRS (see Giguere, et al., (1986), and the Not1/Xho1 restriction fragment of pRShGRNX containing the hGR DNA-binding domain was introduced into pRShRnx between the Not1 and Xho1 sites to create pRShRGR. B, Cell transfection and CAT assay. The recombinant DNA constructs (5 μg each) were introduced into CV-1 cells by calcium phosphate coprecipitation (see Wigler, et al., (1979)). The cells were then cultured for two days in serum free media supplemented with Nutridoma (Boehringer Mannheim) in presence or absence of inducers. CV-1 cells were then prepared for CAT assays as described by Gorman, et al. (1982) and the assays performed for 3 h using 25 μg of protein extract. All experiments with retinol were conducted in subdued light.
(§3) FIGS. 3A and 3B. 3A, Dose-response to retinoids. […] The levels of CAT activity were plotted as percentages of the maximal response observed in this experiment. […] The values represent the mean of quadruplicate determinations.
Methods. 3A, CV-1 cell cotransfections and CAT assays were performed as described in FIG. 2.

[2] = tested on: hybrid receptors with an hTRβ carboxyl terminus; assay: Hybrid thyroid/glucocorticoid receptor CAT assay, hybrids with hTRβ carboxyl terminus; format: cell-based, human; conditions: CV-1 cells, FIG. 9
Protocol: CV-1 cells were used as the receptor-deficient host cells that were transfected with expression plasmids that carry the chimeric RR/TR receptors, and reporter plasmids carrying the CAT reporter gene. […] Acetylated and non-acetylated forms of [^14 C]chloramphenicol were separated by thin layer chromatography, excised, and quantitated by liquid scintillation counting in Econofluor (DuPont) with 5% DMSO. β-galactosidase assays were performed as described by Herbomel et al. (1984). CAT activity is expressed as percent conversion divided by β-galactosidase activity.

[3] = tested on: alpha thyroid hormone receptor (rTRα); conditions: CV-1 cells, absence or presence of T3 (data not shown)
[4] = tested on: beta thyroid hormone receptor (hTRβ); conditions: CV-1 cells, absence or presence of T3 (data not shown)
[5] = molecular target: T2, phRAR1 gene product (human retinoic acid receptor) (Homo sapiens, UniProt P10276); assay: 3H-retinoic acid binding to cytosol extracts of COS-1 cells transfected with pRShRR; conditions: for Competition of 3H-retinoic acid binding: cytosol of transfected COS-1 cells, 2×10^-8 M 3H-retinoic acid, 1000-fold excess (2×10^-5 M) competitor, 4° C., 16 h
T2 sequence (P10276 1-462): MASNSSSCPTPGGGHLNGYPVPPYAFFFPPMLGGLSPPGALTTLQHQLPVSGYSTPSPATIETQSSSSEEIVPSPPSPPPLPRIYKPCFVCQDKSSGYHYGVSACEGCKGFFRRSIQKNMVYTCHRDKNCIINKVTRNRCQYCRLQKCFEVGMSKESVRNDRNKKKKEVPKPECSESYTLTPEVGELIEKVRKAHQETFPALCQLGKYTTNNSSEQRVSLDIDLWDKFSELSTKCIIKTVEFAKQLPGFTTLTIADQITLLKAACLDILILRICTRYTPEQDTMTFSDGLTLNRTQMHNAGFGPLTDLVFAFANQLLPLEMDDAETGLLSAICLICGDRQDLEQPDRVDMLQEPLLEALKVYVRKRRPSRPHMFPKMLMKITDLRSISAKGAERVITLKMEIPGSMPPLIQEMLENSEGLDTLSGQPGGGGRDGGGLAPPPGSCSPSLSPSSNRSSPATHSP
Protocol: as §3
Methods. 3A, CV-1 cell cotransfections and CAT assays were performed as described in FIG. 2. […] All other products were diluted in ethanol and control cultures received 0.1% solvent (v/v) in media. Dose-response curves of retinoid treatment were performed in triplicate. 3B, Subconfluent COS-1 cells were transfected with 10 μg/dish of a control plasmid (pRS) or pRShRR by the DEAE-Dextran method (see Deans, et al., (1984)). Cells were maintained for 2 days in DMEM with 5% charcoal-treated fetal calf serum, then harvested in TNE (40 mM tris-HCl pH 7.5, 150 mM NaCl, 1 mM EDTA) and lysed by Dounce homogenization in hypotonic buffer (50 mM tris-HCl pH 7.4, 0.1 mM EDTA, 5 mM dithiothreitol,10 mM NaMoO4, 10% glycerol, 0.5 mM phenylmethylsulfonyl fluoride) and centrifuged at 100,000×g for 30 min to yield the cytosol fraction. […] Specific binding was measured by the addition of 2×10^-5 M of competitors. Reactions were carried out at 4° C. for 16 h. […] Reactions were placed on filters for 1 min and then rinsed with 5 ml of washing buffer (50 mM tris-HCl pH 7.4, 0.1 mM EDTA, 0.1% Triton X-100). Filters were dried and counted by liquid scintillation spectrophotometry.

[6] = tested on: human glucocorticoid receptor (hGR); assay: CAT induction in CV-1 cells cotransfected with pRShGR and MTV-CAT; format: cell-based; conditions: pRShGR + MTVCAT, 100 nM, 2 days
Source text: as §1, §2

[7] = tested on: mutated human retinoic acid receptor with Not1 and Xho1 sites (pRShRRNX); assay: CAT induction in CV-1 cells cotransfected with parent vector pRShRRNX and MTV-CAT; format: cell-based; conditions: pRShRRNX + MTVCAT, 100 nM, 2 days
Source text: as §1, §2

[8] = tested on: human retinoic acid receptor (hRARα); assay: CAT induction in CV-1 cells cotransfected with pRShRR and MTV-CAT; format: cell-based; conditions: pRShRR + MTVCAT, 100 nM, 2 days
Source text: as §1, §2

In the case of C[C@H](CCCC(C)(C)O)[C@H]1CC[C@H]2[C@@H]3CC=C4C[C@@H](O)CC[C@]4(C)[C@H]3CC[C@]12C [25-OH-cholesterol], the “Induction of CAT activity of the hybrid receptor by natural and synthetic non-retinoid ligands” value [1] is reported as “failed to induce CAT activity”.

N[C@@H](Cc1cc(I)c(Oc2ccc(O)c(I)c2)c(I)c1)C(=O)O [T3, 3,5,3'-triiodo-L-thyronine] was tested, and the “Activation of hybrid receptors by hormone” value [2] was “activated”, the “Activation of transcription from MTV-CAT (no TRE)” value [3] was “neither the alpha nor the beta thyroid hormone receptor activates transcription” and the “Activation of transcription from MTV-CAT (no TRE)” value [4] was “neither the alpha nor the beta thyroid hormone receptor activates transcription”.

For N[C@@H](Cc1cc(I)c(Oc2cc(I)c(O)c(I)c2)c(I)c1)C(=O)O [T4, thyroxine], the “Induction of CAT activity of the hybrid receptor by natural and synthetic non-retinoid ligands” value [1] was “failed to induce CAT activity”.

In the case of C=C1CC[C@H](O)C/C1=C/C=C1\CCC[C@]2(C)[C@@H]([C@H](C)CCCC(C)C)CC[C@@H]12 [Vitamin D3], the “Induction of CAT activity of the hybrid receptor by natural and synthetic non-retinoid ligands” value [1] is reported as “failed to induce CAT activity” and the “Competition of 3H-retinoic acid binding” value [5] is reported as “did not compete”.

With C[C@]12CCC(=O)C=C1CC[C@@H]1[C@@H]2[C@@H](O)C[C@]2(C=O)[C@@H](C(=O)CO)CC[C@@H]12 [aldosterone] the “Induction of CAT activity of the hybrid receptor by natural and synthetic non-retinoid ligands” value [1] was “failed to induce CAT activity”.

For C[C@]12CCC(=O)C=C1CC[C@@H]1[C@@H]2[C@@H](O)C[C@@]2(C)[C@H]1CC[C@]2(O)C(=O)CO [cortisol], the “Induction of CAT activity of the hybrid receptor by natural and synthetic non-retinoid ligands” value [1] was “failed to induce CAT activity”.

C[C@]12CCC(=O)C[C@@H]1CC[C@@H]1[C@@H]2CC[C@]2(C)[C@@H](O)CC[C@@H]12 [dihydrotestosterone] was tested, and the “Induction of CAT activity of the hybrid receptor by natural and synthetic non-retinoid ligands” value [1] was “failed to induce CAT activity”.

For CC(=O)[C@H]1CC[C@H]2[C@@H]3CCC4=CC(=O)CC[C@]4(C)[C@H]3CC[C@]12C [progesterone], the “Induction of CAT activity of the hybrid receptor by natural and synthetic non-retinoid ligands” value [1] was “failed to induce CAT activity”.

CC1=C(/C=C/C(C)=C/C=C/C(C)=C/C(=O)O)C(C)(C)CCC1 [retinoic acid] was tested, and the “Induction of hGR (CAT activity)” value [6] was “not induced”, the “Effect upon CAT activity using parent vector pRShRRNX” value [7] was “No effect upon CAT activity” and the “Effect upon CAT activity using wild type gene product hRARα” value [8] was “No effect upon CAT activity”. The “Induction of CAT activity of the hybrid receptor (in words)” value (“Induction of CAT activity … (in words)” below) [1] was “dramatic increase in CAT activity” and the “Competition of 3H-retinoic acid binding” value [5] was “fully competed”.

In the case of CC1=C(/C=C/C(C)=C/C=C/C(C)=C/CO)C(C)(C)CCC1 [retinol], the “Induction of CAT activity … (in words)” value [1] is reported as “weak agonist” and the “Competition of 3H-retinoic acid binding” value [5] is reported as “only partially”.

In the case of CCCCCCCCCCCCCCCC(=O)OC/C=C(C)/C=C/C=C(C)/C=C/C1=C(C)CCCC1(C)C [retinyl palmitate], the “Induction of CAT activity … (in words)” value [1] is reported as “even weaker inducers”.

For C[C@]12CC[C@H]3[C@@H](CCC4=CC(=O)CC[C@@]43C)[C@@H]1CC[C@@H]2O [testosterone], the “Induction of CAT activity of the hybrid receptor by natural and synthetic non-retinoid ligands” value [1] was “failed to induce CAT activity”.

For ^3 H-retinoic acid, the “Specific binding of 3H-retinoic acid by transfected cells” value ([5]; COS-1 cells transfected with pRShRR versus control plasmid pRS) was “increased capacity to specifically bind”.

For estrogen, the “Induction of CAT activity of the hybrid receptor by natural and synthetic non-retinoid ligands” value [1] was “failed to induce CAT activity”.
